The source of these data is patent US7838535B2, “Compounds having β2 adrenergic receptor agonist and muscarinic receptor antagonist activity” (Theravance, Inc., priority 2003, dated 2010).

Counter-ions that a name gives are not always drawn.

In assay [1] the target is T1, hM2 receptor (Homo sapiens, UniProt P08172).
T1 construct: expressed in transfected cells
T1 sequence (P08172 1-466): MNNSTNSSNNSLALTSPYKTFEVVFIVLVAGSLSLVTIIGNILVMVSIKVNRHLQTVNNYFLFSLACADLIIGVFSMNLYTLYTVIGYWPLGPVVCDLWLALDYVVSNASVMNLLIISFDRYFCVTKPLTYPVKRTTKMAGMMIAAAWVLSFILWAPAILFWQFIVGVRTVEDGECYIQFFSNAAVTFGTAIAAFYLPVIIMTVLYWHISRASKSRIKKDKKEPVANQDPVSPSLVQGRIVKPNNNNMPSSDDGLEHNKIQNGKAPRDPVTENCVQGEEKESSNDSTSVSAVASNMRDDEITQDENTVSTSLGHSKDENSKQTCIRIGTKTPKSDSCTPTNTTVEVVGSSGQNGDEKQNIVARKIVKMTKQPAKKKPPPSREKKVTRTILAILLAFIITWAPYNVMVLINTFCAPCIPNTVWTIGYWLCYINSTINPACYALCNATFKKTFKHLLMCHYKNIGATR
In words: Blockade of agonist-mediated [35S]GTPγS binding, CHO-K1 membranes expressing hM2. Type of assay: biochemical. The note with it: CHO-K1 cells expressing the hM2 receptor; read-out: Ki value for blockade of oxotremorine-stimulated [35S]GTPγS-binding. The protocol: In a second functional assay, the functional potency of test compounds is determined by measuring the ability of the compounds to block oxotremorine-stimulated [^35S]GTPγS binding in CHO-K1 cells expressing the hM2 receptor.
At the time of use, frozen membranes were thawed and then diluted in assay buffer with a final target tissue concentration of 5-10 μg protein per well. The membranes were briefly homogenized using a Polytron PT-2100 tissue disrupter and then added to the assay plates.
The EC90 value (effective concentration for 90% maximal response) for stimulation of [^35S]GTPγS binding by the agonist oxotremorine was determined in each experiment.
To determine the ability of a test compound to inhibit oxotremorine-stimulated [^35S]GTPγS binding, the following was added to each well of 96 well plates: 25 μL of assay buffer with [^35S]GTPγS (0.4 nM), 25 μL of oxotremorine (EC90) and GDP (3 uM), 25 μL of diluted test compound and 25 μL CHO cell membranes expressing the hM2 receptor. […] Microscint-20 scintillation liquid (50 μL) was added to each well, and each plate was sealed and radioactivity counted on a Topcounter (PerkinElmer). Data were analyzed by nonlinear regression analysis with the GraphPad Prism Software package (GraphPad Software, Inc., San Diego, Calif.) using the non-linear regression, one-site competition equation. […]
Background: GTPγS is a poorly hydrolysed GTP analogue; its binding reports G protein activation.

Assay [2] deals with T2, human dopamine D2S receptor (Homo sapiens, UniProt P14416).
T2 construct: expressed in transfected cells; host or cells: CHO cells, transfected, cell membrane homogenates
T2 sequence (P14416 1-414 isoform P14416-2): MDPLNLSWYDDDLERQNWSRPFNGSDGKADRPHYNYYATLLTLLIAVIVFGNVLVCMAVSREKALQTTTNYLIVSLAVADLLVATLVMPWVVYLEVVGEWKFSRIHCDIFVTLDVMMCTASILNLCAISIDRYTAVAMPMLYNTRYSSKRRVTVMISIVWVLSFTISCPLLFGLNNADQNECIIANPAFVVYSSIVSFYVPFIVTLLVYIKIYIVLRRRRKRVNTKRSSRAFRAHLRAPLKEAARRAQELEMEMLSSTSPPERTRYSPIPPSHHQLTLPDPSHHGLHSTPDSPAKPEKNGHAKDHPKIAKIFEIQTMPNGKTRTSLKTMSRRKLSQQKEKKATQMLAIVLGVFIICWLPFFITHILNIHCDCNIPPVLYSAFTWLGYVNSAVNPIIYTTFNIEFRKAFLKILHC
In words: Radioligand competition binding assay in cloned human dopamine D2S receptor. The note with it: test concentration 100 nM, 0.3 nM [3H]spiperone, transfected CHO cell membranes; read-out: percent inhibition of the control radioligand specific binding. The protocol: In this assay, the binding affinity of test compounds for the human dopamine D2S receptor in transfected CHO cells is determined using a radioligand binding assay (Grady et al., Proc. Natl. Acad. Sci. USA 86:9762 (1989). Cell membrane homogenates (5-10 μg protein) were incubated for 60 minutes at 22° C. with 0.3 nM [^3H]spiperone in the absence or presence of a test compound in a buffer containing 50 mM Tris-HCl (pH 7.4), 120 mM NaCl, 5 mM KCl, 5 mM MgCl2 and 1 mM EDTA. The test compound was used at a test concentration of 100 nM. Nonspecific binding was determined in the presence of 10 μM (+)-butaclamol. Following incubation, the samples were filtered rapidly under vacuum through glass fiber filters (GF/B, Packard) presoaked with 0.3% polyethyleneimine and rinsed several times with ice-cold 50 mM Tris-HCl using a 96-sample cell harvester (Unifilter, Packard). The filters were dried, and then counted for radioactivity in a scintillation counter (Topcount, Packard) using a scintillation cocktail (Microscint 0, Packard). The results were expressed as a percent inhibition of the control radioligand specific binding.
(Loss of bound radioactivity is the signal in a displacement assay; it reports binding, not function.)

By Ki is commonly meant the equilibrium dissociation constant of an inhibitor or competing ligand from its target. The term inhibition denotes the relative decrease from the control value, in per cent. In the case of `O=C(Nc1ccccc1-c1ccccc1)OC1CCN(CCCCCCCCCNCCc2ccc(O)c3[nH]c(=O)sc23)CC1` [Example 1, Biphenyl-2-ylcarbamic Acid 1-{9-[2-(4-Hydroxy-2-oxo-2,3-dihydrobenzothiazol-7-yl)-ethylamino]nonyl}piperidin-4-yl Ester Bis(trifluoroacetate) Salt], the inhibitory constant (Ki) in assay [1] was less than 10 nM. The inhibition at 0.1 µM in assay [2] was more than 75%.
Consider `O=C(CCN1CCC(OC(=O)Nc2ccccc2-c2ccccc2)CC1)Nc1ccc(CNCCc2ccc(O)c3[nH]c(=O)sc23)cc1` [Example 2, Biphenyl-2-ylcarbamic Acid 1-[2-(4-{[2-(4-Hydroxy-2-oxo-2,3-dihydrobenzothiazol-7-yl)ethylamino]methyl}phenylcarbamoyl)ethyl]-piperidin-4-yl Ester Bis(trifluoroacetate) Salt], for which the inhibition at 0.1 µM in assay [2] was more than 30%.
